Source: patent US12497359B2, “Acrylamide derivatives” (NRG Therapeutics Ltd, priority 2020, dated 2025)
Converted amounts (≈) assume the structure as drawn.

Experiments:
FaSSIF solubility = assay type: physicochemical; settings: kinetic from dmso stock, Fasted state simulated intestinal fluid, 2 hr at 25° C.
Protocol: (§1) Test compounds were prepared as 10 mM stocks in DMSO and 15 μl samples transferred in duplicate into 1.5 mL glass flat bottom vials (BioTech Solutions). Fasted state simulated intestinal fluid (FaSSIF) or PBS (pH 7.4) was added to each vial to final volume of 500 μl. One PTFE encapsulated stir stick (V&P Scientific) was placed in each vial before sealing with PTFE/SIL plugs (BioTech Solutions). Vials were shaken at 1100 rpm for 2 hr at 25° C. Samples were then filtered through MultiScreen Solvinert filter plates (Millipore) via vacuum filtration. Aliquots of filtrate (5 μl) plus 5 μl DMSO were diluted in 490 μl 50% acetonitrile in water containing internal standard. The filtrate was analysed and quantified against a standard of known concentration using LC-MS/MS. Solubility values of the test compound and control compound were calculated as follows: [Sample]=(Area ratiosample*INJ VOL STD*DFsample*[STD])/(Area ratio STD*INJ VOLsample).

mPTP [1] = assay: mPTP activity assay in isolated rat liver mitochondria (Ca2+ retention, Fluo5N, FLIPR); assay type: biochemical; settings: isolated rat liver mitochondria; average value from multiple experiments (n ≥ 2)
Excerpt: Pharmacological inhibition or modulation of the mPTP can be measured in well characterised ‘Ca^2+ retention’ assays performed in isolated mitochondria. In vitro, isolated mitochondria rapidly sequester exogenous Ca^2+ until the intramitochondrial Ca^2+ concentration reaches the threshold for mPTP activation. Once the pore is activated, mitochondrial integrity is compromised and the stored Ca^2+ is released. The distribution of Ca^2+ between extra- and intra-mitochondrial compartments can be measured in real time with the use of membrane-impermeant Ca^2+ sensitive fluorescent dyes. Depending on the configuration of the assay, inhibition or modulation of the mPTP either delays the opening of the pore or increases the concentration of Ca^2+ required to induce mPTP opening.
mPTP activity was measured in mitochondria freshly isolated from female Sprague Dawley (250 to 300 gram) rat livers using the following method. Cervical dislocation was performed on the rat. The liver was then perfused in-situ with ˜40 ml cold Dulbecco's Phosphate Buffered Saline (DPBS) prior to dissection and transferred into 30 ml Isolation Buffer (250 mM Sucrose, 10 mM KCl, 1 mM EGTA, 1 mM EDTA, 25 mM HEPES, adjusted to pH 7.5 with 1 M NaOH). Each lobe of the liver was then removed from the buffer, minced using tweezers and a scalpel into ˜5 mm pieces then transferred into a 50 ml Potterton dounce homogenization tube on ice containing 30 ml ice-cold centrifugation buffer (300 mM Trehalose, 25 mM HEPES, 1 mM EGTA, 1 mM EDTA, 10 mM KCl, adjusted to pH 7.5 with 1 M NaOH and supplemented with 0.1% bovine serum albumin (BSA) and complete protease inhibitor cocktail (one tablet of inhibitor per 50 mls of buffer). Homogenisation was carried out using a teflon pestle at 1800 rpm. The slurry was centrifuged at 800 g for 10 min at 4° C., then the supernatant centrifuged at 10,000 g for 10 min. The pellet was washed once with FLIPR assay buffer (75 mM Mannitol, 25 mM Sucrose, 5 mM Potassium Phosphate Monobasic, 20 mM Tris base, 100 mM KCl, 0.1% BSA adjusted to pH 7.4 with 5 M HCl) centrifuged again, then resuspended in FLIPR assay buffer to a concentration of 8.8 mg/ml protein.
Test compounds (10 mM stock in DMSO) were serially diluted in DMSO in half log steps to generate 10 test concentrations (final concentrations in assay 30 μM to 1 nM). An intermediate dilution of 5 μl DMSO samples into 247 μl FLIPR assay buffer was carried out prior to transfer of 5 μl into duplicate wells of a 384 well polypropylene assay plate. Control wells were 0.5% (v/v) DMSO and 5 μM cyclosporin A.
A stock mitochondria/Fluo5N assay solution was prepared in 5.6 ml FLIPR assay buffer (at RT) supplemented with succinate disodium salt (10 mM), rotenone (1 μM), Fluo5N pentapotassium salt (2 μM) and 1 ml mitochondria suspension, then transferred (15 μl) into the assay plate containing test compounds and incubated for 10 min at RT. Assay plates were then transferred to a FLIPR Tetra plate reader (Molecular Devices). Dye fluorescence was then measured every 3 sec for a total of 10 min. After 12 sec, a 2.5 μl bolus of CaCl2 (75 μM) was added from a source plate containing 675 μM CaCl2 in FLIPR assay buffer. IC50 values for test compounds were calculated using the fluorescence value collected at the 10 min timepoint with % inhibition calculated using the DMSO control and cyclosporin A values as […] respectively.

[2] = Hepatocyte clearance assay, human; assay type: in vitro ADME; settings: cryopreserved primary human hepatocytes, average value from two experiments, read-out: Human heps intrinsic clearance (CLint)
Protocol: (§2) In vitro clearance studies were performed in primary rat and human hepatocytes (BioIVT). Vials of cryopreserved rat or human hepatocytes were thawed in a 37° C. water bath for 2 min. Cells were transferred into thawing medium (Williams' Medium E containing 30% Percoll, 1× GlutaMAX-1, 15 mM HEPES, 5% fetal bovine serum (FBS), 4 μg/ml insulin, 1 μM dexamethasone), centrifuged at 100 g for 10 min then resuspended in culture medium (Leibovitz's L-15 Medium) at a concentration of 0.5×10^6 viable cells/mL (number of viable cells assessed using AO/PI staining). Hepatocytes (198 μL) were transferred into wells of a 96-well non-coated plate and placed in a 37° C. incubator for 10 min. Test compound solutions were prepared from 10 mM stocks in DMSO, diluted to 100 μM in 50% (v/v in water) acetonitrile. Test compound samples (2 μl) were added to each well of hepatocytes and incubated at 37° C. Samples (25 μl) were collected at t=0, 15, 30, […] and 120 min, mixed with 6 volumes (150 μl) of acetonitrile containing internal standard (100 nM alprazolam, 200 nM caffeine and 100 nM tolbutamide), vortexed for 5 min and centrifuged for 45 min at 3220 g. An aliquot of supernatant (100 μL) was diluted with 100 μL ultra-pure water, and the mixture was used for LC/MS/MS analysis. All incubations were performed in duplicate. Peak areas were determined from extracted ion chromatograms. The slope value, k, was determined by linear regression of the natural logarithm of the remaining percentage of the parent drug vs. incubation time curve. The in vitro half-life (in vitro t1/2) was determined from the slope value: in vitro t1/2=0.693/k. Conversion of the in vitro t1/2 (in min) into the in vitro intrinsic clearance (in vitro CLint, in μL/min/1×10^6 cells) was done using the following equation (mean of duplicate determinations): • in vitro CLint=kV/N • V=incubation volume (0.2 mL) • N=number of hepatocytes per well (0.1×10^6 cells). Microsomal Clearance Assay

[3] = Hepatocyte clearance assay, rat; assay type: in vitro ADME; settings: cryopreserved primary rat hepatocytes, average value from two experiments, read-out: Rat heps intrinsic clearance (CLint)
Protocol: as §2

mPTP [4] = assay: mPTP activity assay in isolated rat brain mitochondria; assay type: biochemical; settings: isolated rat brain mitochondria
Protocol: MPTP activity was measured in brain mitochondria freshly isolated from female Sprague Dawley (250 to 300 gram) rats. Anaesthetised rats were perfused in-situ with ˜40 ml cold Dulbecco's Phosphate Buffered Saline (DPBS), then brains dissected and transferred into 30 ml Isolation Buffer (225 mM mannitol, 75 mM sucrose, 1 mM EGTA, adjusted to pH 7.4 with 1 M NaOH). The brain was minced using tweezers and a scalpel into ˜5 mm pieces then transferred into a 50 ml Potterton Dounce homogenization tube on ice containing 10 ml ice-cold isolation buffer (as above with addition of Complete Protease inhibitor; 1 tablet per 50 ml buffer). Homogenisation was carried out using a teflon pestle at 1800 rpm. The slurry was centrifuged at 2000 g for 10 min at 4° C., then the supernatant centrifuged at 12,000 g for 9 min. The pellet was resuspended with a dounce homogeniser in isolation buffer as above but with the addition of 0.02% digitonin, centrifuged at 12,000 g for 11 min and finally resuspended in 5 ml modified isolation buffer (as above but with EGTA reduced to 0.1 mM).
Test compounds were prepared in 384 well polypropylene assay plates as described above for the liver mitochondria assay. A stock mitochondria/Fluo5N assay solution was prepared in 5.6 ml assay buffer (120 mM mannitol, 40 mM MOPS, 5 mM KH2PO4, 60 mM KCl, 10 mM pyruvate, 2 mM malate, 2 mM MgCl2, 20 μM ADP, 1.26 μM oligomycin A, adjusted to pH 7.4) supplemented with Fluo5N pentapotassium salt (2 μM) and 1 ml mitochondria suspension, then transferred (15 μl) into the assay plate containing test compounds and incubated for 10 min at RT. Assay plates were then transferred to a FLIPR Tetra plate reader (Molecular Devices). Dye fluorescence was then measured every 3 sec for a total of 10 min. After 12 sec, a 2.5 μl bolus of Ca2+(75 μM) was added from a source plate containing 675 μM CaCl2 in FLIPR assay buffer. IC50 values for test compounds were calculated using the fluorescence value collected at the 10 min timepoint with % inhibition calculated using the DMSO control and cyclosporin A values at […].

PBS solubility = assay type: physicochemical; settings: aqueous buffer, kinetic from dmso stock; PBS pH 7.4, 2 hr at 25° C.
Protocol: as §1

Compound | solubility at 2 h (FaSSIF solubility) [µM] | mPTP Rat liver pIC50* (mPTP [1]) | hepatocyte CLint at 1 µM [2] [µL/min/1e6 cells] | hepatocyte CLint at 1 µM [3] [µL/min/1e6 cells] | mPTP Rat brain pIC50 (mPTP [4]) | solubility at 2 h (PBS solubility) [µM]
CO[C@H]1Cc2ccccc2[C@@H]1NC(=O)/C=C/c1ccc2cn[nH]c2c1 [Example 37, (E)-3-(1H-indazol-6-yl)-N-((1S,2S)-2-methoxy-2,3-dihydro-1H-inden-1-yl)acrylamide] | 80 (≈ 26.7 µg/mL) | 7.5 | 13 | 25 | – | –
O=C(/C=C/c1ccc2cn[nH]c2c1)Nc1ccccc1CCN1CC(F)C1 [Example 32, (E)-N-(2-(2-(3-fluoroazetidin-1-yl)ethyl)phenyl)-3-(1H-indazol-6-yl)acrylamide] | 296 (≈ 108 µg/mL) | 5.8 | 31 | 64 | – | –
Cc1cccc(C)c1NC(=O)/C=C/c1ccc2cn[nH]c2c1 [Example 24, (E)-N-(2,6-dimethylphenyl)-3-(1H-indazol-6-yl)acrylamide] | 3 (≈ 0.874 µg/mL) | 7.6 | – | – | 7.6 | 1.2 (≈ 0.35 µg/mL)
